Assay: xn = mol fraction of the nth substance listed

ClC(Cl)Cl + CCO
Conditions	viscosity [mPa·s]
303 K, 101.3 kPa, x1 = 0.1074	0.9539
303 K, 101.3 kPa, x1 = 0.2992	0.8095
303 K, 101.3 kPa, x1 = 0.5029	0.6591
303 K, 101.3 kPa, x1 = 0.6978	0.5679
303 K, 101.3 kPa, x1 = 0.9003	0.5256
303.15 K, 101 kPa, x2 = 0.0811	0.514
303.15 K, 101 kPa, x2 = 0.1571	0.5247
303.15 K, 101 kPa, x2 = 0.2368	0.544
303.15 K, 101 kPa, x2 = 0.3342	0.5774
303.15 K, 101 kPa, x2 = 0.4545	0.6351
303.15 K, 101 kPa, x2 = 0.5514	0.697
303.15 K, 101 kPa, x2 = 0.6372	0.7617
303.15 K, 101 kPa, x2 = 0.7644	0.8683
303.15 K, 101 kPa, x2 = 0.7943	0.8927
303.15 K, 101 kPa, x2 = 0.8607	0.9412
303.15 K, 101 kPa, x2 = 0.9211	0.9752
303.15 K, 101.3 kPa, x2 = 0.186	0.514
303.15 K, 101.3 kPa, x2 = 0.3257	0.5247
303.15 K, 101.3 kPa, x2 = 0.4457	0.544
303.15 K, 101.3 kPa, x2 = 0.5653	0.5774
303.15 K, 101.3 kPa, x2 = 0.6834	0.6351
303.15 K, 101.3 kPa, x2 = 0.761	0.697
303.15 K, 101.3 kPa, x2 = 0.8198	0.7617
303.15 K, 101.3 kPa, x2 = 0.8937	0.8683
303.15 K, 101.3 kPa, x2 = 0.9091	0.8927
303.15 K, 101.3 kPa, x2 = 0.9412	0.9412
303.15 K, 101.3 kPa, x2 = 0.968	0.9752
311 K, 101.3 kPa, x1 = 0.1074	0.8217
311 K, 101.3 kPa, x1 = 0.2992	0.7021
311 K, 101.3 kPa, x1 = 0.5029	0.5849
311 K, 101.3 kPa, x1 = 0.6978	0.5169
311 K, 101.3 kPa, x1 = 0.9003	0.4864
319 K, 101.3 kPa, x1 = 0.1074	0.7107
319 K, 101.3 kPa, x1 = 0.2892	0.6097
319 K, 101.3 kPa, x1 = 0.5029	0.5234
319 K, 101.3 kPa, x1 = 0.6978	0.4922
319 K, 101.3 kPa, x1 = 0.9003	0.4517

O=CC(Cl)(Cl)Cl + CCO
viscosity [mPa·s], 101 kPa
Conditions	313.15 K	318.15 K	323.15 K
x1 = 0.1	1.126	1.031	0.939
x1 = 0.15	1.406	1.271	1.141
x1 = 0.2	1.753	1.569	1.397
x1 = 0.25	2.2	1.951	1.702
x1 = 0.3	2.783	2.383	2.074
x1 = 0.4	4.053	3.366	2.848
x1 = 0.425	4.352	3.58	3
x1 = 0.45	4.632	3.769	3.141
x1 = 0.475	4.757	3.854	3.201
x1 = 0.49	4.703	3.788	3.143
x1 = 0.5	4.565	3.673	3.064
x1 = 0.55	3.937	3.201	2.706
x1 = 0.6	3.311	2.737	2.392
x1 = 0.7	2.258	1.989	1.757
x1 = 0.75	1.976	1.724	1.53
x1 = 0.8	1.755	1.542	1.38
x1 = 0.9	1.351	1.219	1.12

ClC(Cl)Cl + CCOC(C)=O
303.15 K, 101.3 kPa
Conditions	viscosity [mPa·s]
x2 = 0.1062	0.5361
x2 = 0.2031	0.5455
x2 = 0.305	0.5471
x2 = 0.4094	0.5381
x2 = 0.5069	0.5255
x2 = 0.6112	0.5028
x2 = 0.808	0.4504
x2 = 0.9027	0.4254

CC(=O)OCc1ccccc1 + CCc1ccccc1
viscosity [mPa·s], 101 kPa
Conditions	x1 = 0.0913	x1 = 0.176	x1 = 0.2732	x1 = 0.3687	x1 = 0.467	x1 = 0.5592	x1 = 0.6706	x1 = 0.7597	x1 = 0.8652	x1 = 0.9304
303.15 K	0.643	0.692	0.755	0.825	0.912	1.006	1.133	1.265	1.428	1.526
313.15 K	0.577	0.616	0.663	0.717	0.784	0.845	0.943	1.033	1.156	1.233

Reference: the CheMixHub viscosity set
